“And” between values parts separate entries of the source, which are not always exact repeats. Identical values can stand only once. Like-named read-outs stand apart in the source and are kept apart here.
Experiments:
[1] = system: [Na+]i of guinea pig isolated heart; test: 23Na-NMR spectroscopy of intracellular sodium concentration in isolated heart
[2] = system: late sodium current (late INa); test: Whole-cell patch-clamp of late INa in isolated ventricular myocytes; assay type: cell-based, guinea pig
[3] = system: guinea pig isolated, perfused heart; conditions: for developed pressure: FIG. 7
[4] = system: isolated guinea pig papillary muscles
[5] = system: guinea pig isolated, perfused heart; test: 31P-NMR spectroscopy of energy-related phosphates and pHi in isolated heart
Na+, K+-ATPase = test: Na+,K+-ATPase activity assay by 86Rb+ uptake of A7r5 cells; assay type: cell-based; conditions: for 86Rb+ uptake: control = activity in presence of ouabain
Source text: The activity of Na^+, K^+-ATPase was inhibited 77% by 1 mmol/L ouabain in the absence (control) of ranolazine. Values of ^86Rb^+ uptake were 91±11, 98±2.5, and 93±8.3% of control (activity in presence of ouabain) in the presence of 3, 10, and 30 μmol/L ranolazine, respectively.

cat papillary muscles = conditions: 1.37 μmol/L ouabain, Lee et al. 1960; cited from earlier work
[6] = 0.75 μmol/L ouabain for 60 min, n=5
[7] = Example 1, ouabain-alone treated hearts
[8] = after ouabain treatment (discussion)
[9] = FIG. 1, after ouabain without ranolazine
[10] = 0.75 μmol/L ouabain in the presence of 10 μmol/L ranolazine
[11] = 0.75 μmol/L ouabain in the presence of 10 μmol/L ranolazine, 60 min

NC1=N[C@H](O)[C@H]2[C@H]3O[C@]4(O)O[C@@H]([C@@H](O)[C@@]2(N1)[C@@H]4O)[C@]3(O)CO [TTX, tetrodotoxin]
[Na+]i [1]: did not significantly change | [Na+]i plateau concentration [1]: 10.5 ± 0.3 mmol/L | decrease in the ouabain-induced rise of [Na+]i [1]: concentration-dependent | effect of 1 μmol/L ouabain to increase late INa [2]: partially reversed | late INa [2]: 21.2±7.9 pC/pF | ouabain-induced late current [2]: completely inhibited | LVSP decrease [3]: 9% and 18.2% | effect of ouabain to cause contractile dysfunction [3]: attenuated | episodes of cardiac standstill and changes in LVEDP [3]: neither episodes of cardiac standstill nor changes in LVEDP were observed | maximum value of RPP [3]: 35,569±1,850 mmHg/min and 39,182±2,216 mmHg/min | occurrence of episodes of cardiac standstill caused by ouabain [3]: reduced | positive inotropic effect of ouabain throughout the 60-min exposure [3]: sustained | recovery of contractile function after drug washout [3]: better recovery | responses of hearts exposed to ouabain [3]: comparable to those exposed to ouabain in the presence of 3 union ranolazine | increase of diastolic tension during ouabain treatment [4]: attenuated

C[C@@H]1O[C@@H](O[C@H]2C[C@@H](O)[C@]3(CO)[C@H]4[C@H](O)C[C@]5(C)[C@@H](C6=CC(=O)OC6)CC[C@]5(O)[C@@H]4CC[C@]3(O)C2)[C@H](O)[C@H](O)[C@H]1O [ouabain]
[Na+]i ([1]; 0.75 μmol/L ouabain for 40 min, absence of ranolazine, n=4): 14.9 ± 0.9 mmol/L | [Na+]i ([1]; 0.75 μmol/L ouabain for 76 min, absence of ranolazine, n=4): 18.1 ± 0.9 mmol/L | [Na+]i plateau level ([1]; 1.3 μmol/L ouabain alone, n=6): 22.9 ± 0.7 mmol/L | increase of [Na+]i ([1]; 1.3 μmol/L ouabain, at 60 min): 3.3 -fold | [Na+]i after washout of ouabain for 20 min ([1]; after 1.3 μmol/L ouabain, n=5): 10.3 ± 1.8 mmol/L | [ATP] decline [5, 6]: 55±6% | [PCr] decline [5, 6]: 56±7% | [Pi] increase [5, 6]: 3.7±0.9 -fold | [Pi] before washout ([5]; 0.75 μmol/L ouabain for 60 min, control 2.9±0.2): 9.1 ± 0.5 mmol/L | pHi ([5]; 0.75 μmol/L ouabain for 60 min, control 7.15±0.01): 7.07±0.01 | decrease of |ΔG~ATP| ([5]; 0.75 μmol/L ouabain for 60 min, control 59.2 kJ/mol): 1.72 ± 0.287 kcal/mol | ATP content reduced by [5, 7]: 64% | intracellular inorganic phosphate (Pi) increase [5, 7]: 4.8 fold | phosphocreatine (PCr) content reduced by [5, 7]: 59% | pH ([5]; Example 1, ouabain-alone treated hearts, baseline 7.14): 7.07 | [Pi] after 20-min washout ([5]; after 0.75 μmol/L ouabain): 5.8 ± 0.4 mmol/L | pHi after 20-min washout ([5]; after 0.75 μmol/L ouabain): 7.15 | loss of [ATP] and [PCr] [5, 8]: over 50% | reduction of the value of |ΔG~ATP| [5, 8]: 1.7 kcal/mol | activity of Na+, K+-ATPase inhibited (Na+, K+-ATPase; 1 mmol/L ouabain, absence of ranolazine): 77% | integrated late INa ([2]; 3 to 5-min exposure to ouabain 1 μmol/L, from 23.5±4.9, n=8): 99.6±15.2 pC/pF | late INa ([2]; ouabain alone 1 μmol/L, 5-10 min, from 21±2, n=6): 84±12 pC/pF | increase of late INa ([2]; ouabain alone 1 μmol/L, 5-10 min, n=6): 318±74% | hearts with episodes of cardiac standstill ([3]; 0.75 μmol/L ouabain for 60 min, alone): 11 out of 13 | LVSP ([3]; 0.75 μmol/L ouabain, from 96±2 mmHg, n=13): 148±6 mmHg | RPP ([3]; 0.75 μmol/L ouabain, from 26,497±664 mmHg/min, n=13): 40,676±1159 mmHg/min | increase of LVSP ([3]; 0.75 μmol/L ouabain, n=13): 55±5% | increase of RPP ([3]; 0.75 μmol/L ouabain, n=13): 59±6% | diastolic function (pressure) during 20 min wash out [3, 9]: 34 mmHg | systolic pressure during 20 min wash out [3, 9]: 70 mmHg | Left ventricular systolic pressure, maximum upon infusion with ouabain ([3]; FIG. 1 representative tracing, ouabain without ranolazine, baseline 101 mmHg): 140 mmHg | EDP during toxic effect of ouabain ([3]; FIG. 1 representative tracing, ouabain without ranolazine, increase from 8 mmHg): 45 mmHg | developed pressure ([3]; ouabain-only treated hearts): significantly decreased | LVDevP at the end of washout ([3]; ouabain alone, control 89.1±1.0 mmHg): 36.4±5.9 mmHg | reduction of [ATP] (cat papillary muscles): 42% | reduction of [PCr] (cat papillary muscles): 66%

COc1ccccc1OCC(O)CN1CCN(CC(=O)Nc2c(C)cccc2C)CC1 (stereo not drawn) [ranolazine]
[Na+]i plateau concentration ([1]; 1.3 μmol/L ouabain in the presence of 10 μmol/L ranolazine, n=8): 15.4 ± 0.45 mmol/L | [Na+]i ([1]; 10 μmol/L ranolazine for up to 30 min or 1 μmol/L TTX for 10 min, no ouabain): did not significantly change | ouabain-induced increase in [Na+]i ([1]; 3 or 10 μmol/L ranolazine given after 40 min of 0.75 μmol/L ouabain alone, pooled n=6, FIG. 8C): partially reversed | cardiac [Na+]i during normal perfusion ([1]; Example 1, RAN 10 μM): did not change | [Na+]i accumulation during ouabain treatment ([1]; Example 1, RAN 10 μM, P<0.01): reduced | decrease in the ouabain-induced rise of [Na+]i ([1]; FIG. 8E, Ran 3 and 10, TTX 0.5 and 1 μmol/L): concentration-dependent | [Na+]i ([1]; ranolazine 10 μmol/L for 30 min, no ouabain, n=5, control 6.9±0.6): 6.5 ± 0.4 mmol/L | level of [Na+]i in hearts previously exposed to ouabain alone for 40 min ([1]; ranolazine 10 μmol/L, 30 min, FIG. 8C): did not significantly reduce | [Pi] increase [5, 10]: 1.3±0.1 times | fall in pHi [5, 10]: not significant | [ATP] [5, 11]: did not change significantly | [PCr] decrease from baseline [5, 11]: 19±5% | [Pi] increase ([5]; Example 1, RAN + ouabain): 14% | pH ([5]; Example 1, RAN + ouabain): remained constant | ATP and PCr decrease ([5]; Example 1, RAN pretreatment, after 60 min of ouabain treatment): 20% | decrease of |ΔG~ATP| ([5]; ouabain in the presence of 10 μmol/L ranolazine): 0.454 ± 0.14 kcal/mol | concentrations of phosphates or pHi ([5]; ranolazine alone for 10 min): did not alter | 86Rb+ uptake (Na+, K+-ATPase; 3 μmol/L ranolazine): 91±11 % of control | 86Rb+ uptake (Na+, K+-ATPase; 10 μmol/L ranolazine): 98±2.5 % of control | 86Rb+ uptake (Na+, K+-ATPase; 30 μmol/L ranolazine): 93±8.3 % of control | effect on sodium pump activity (Na+, K+-ATPase; 3, 10, 30 μmol/L ranolazine): no measurable effect | effect of 1 μmol/L ouabain to increase late INa ([2]; FIG. 9, ranolazine 10 μmol/L or TTX 3 μmol/L): partially reversed | reduction of late INa ([2]; ranolazine 10 μmol/L in the continuous presence of ouabain 1 μmol/L, n=8): 69±9% | late INa ([2]; ranolazine 10 μmol/L in the continuous presence of ouabain, from 99.6±15.2, n=8): 50.6±13.6 pC/pF | effect of ouabain to cause contractile dysfunction [3]: attenuated | mechanical dysfunction (increase in end diastolic pressure, episodes of cardiac standstill) [3]: not observed | occurrence of episodes of cardiac standstill caused by ouabain [3]: reduced | maximum value of RPP ([3]; 0.75 μmol/L ouabain + 3 μmol/L ranolazine, n=8): 40,033±1,477 mmHg/min | positive inotropic response to ouabain during the 60-min exposure ([3]; 0.75 μmol/L ouabain + 5 μmol/L ranolazine): not sustained at a maximal level | maximum value of RPP ([3]; 0.75 μmol/L ouabain + 5 μmol/L ranolazine, n=5): 38,874±2,904 mmHg/min | maximum value of RPP ([3]; 0.75 μmol/L ouabain + 10 μmol/L ranolazine, n=8): 41,079±2,097 mmHg/min | positive inotropic response to ouabain ([3]; Example 1, RAN 10 μM, ouabain 0.75-1.3 μM for 60 min): did not reduce | systolic pressure during Ranolazine delivery ([3]; FIG. 2, 3.3 uM Ran pretreatment): slight drop | maximal inotropic effect of ouabain ([3]; FIG. 2, heart pretreated with 3.3 uM Ran): the same as in the ouabain alone treated hearts | SP (systolic pressure) ([3]; FIG. 3, 5 uM Ran): transient decrease | maximal positive inotropic effect of ouabain ([3]; FIG. 3, 5 uM Ran): not reduced | left ventricular contractile function over the duration of the experiment ([3]; FIG. 4, heart pretreated with 10 uM Ran): stable contractile function | ability of ouabain to significantly increase the pos dP/dt ([3]; FIG. 6): did not affect | RPP increase upon infusion with ouabain ([3]; FIG. 6, hearts pretreated with 10 uM ranolazine): reached the same value as in the absence of ranolazine | RPP during the wash out period ([3]; FIG. 6, ouabain in the presence of ranolazine vs ouabain alone): improved | decrease of RPP (rate pressure product) ([3]; FIG. 6, pretreatment with 10 uM ranolazine, before ouabain): about 20% | developed pressure ([3]; ouabain, hearts treated with 10 uM ranolazine): increased | LVDevP at the end of washout ([3]; ouabain + 3 μmol/L ranolazine): 59.2±5.5 mmHg | positive inotropic effect of ouabain throughout the 60-min exposure ([3]; ouabain + 10 μmol/L ranolazine (n=8) or 1 μmol/L TTX (n=6)): sustained | episodes of cardiac standstill and changes in LVEDP ([3]; ouabain + 10 μmol/L ranolazine or 1 μmol/L TTX): neither episodes of cardiac standstill nor changes in LVEDP were observed | LVDevP at the end of washout ([3]; ouabain + 5 or 10 μmol/L ranolazine or 1 μmol/L TTX): not significantly different from control | recovery of contractile function after drug washout ([3]; ouabain + 5 or 10 μmol/L ranolazine or 1 μmol/L TTX, vs ouabain alone): better recovery | LVSP decrease ([3]; ranolazine alone 3 μmol/L): 8% | LVSP decrease ([3]; ranolazine alone 5 μmol/L): 16.7% | LVSP decrease ([3]; ranolazine alone 10 μmol/L): 15.8% | increase of diastolic tension during ouabain treatment ([4]; 5 and 10 μmol/L ranolazine and 1 μmol/L TTX): attenuated

Source: patent US20100130436A1, “CO-ADMINISTRATION OF RANOLAZINE AND CARDIAC GLYCOSIDES” (priority 2008, published 2010)
